According to patent publication US10183936B2, “Hepatitis B core protein allosteric modulators” (priority 2014, dated 2019):

How the values were obtained:
[1] = test system: HBV viral production in AD38 cells; experiment: Viral load production in AD38 cells by quantitative PCR of the HBV core sequence in supernatant; assay type: cell-based; details: Hepatitis B virus, 144 h; 10 μM compound, 6 days at 37° C., viral load in supernatant compared against DMSO control wells; read-out: AD38 Viral Load (CpAM/DMSO %) at 10 μM
Method: (§1) Example 56: Assay Measuring Activity of Compounds on Viral Production in and on Viability of AD38 Cells
(§2) AD38 cells were then re-suspended with 10 mL of Treatment Medium and counted. Wells of a collagen coated 96-well NUNC microtiter plate were seeded at 50,000/well in 180 μL of Treatment Medium, and 20 μL of in treatment media with either 10% DMSO (Control) or a 10× solution of compound in 10% DMSO was added. Plates were incubated for 6 days at 37° C.
Viral load production was assayed by quantitative PCR of the core sequence. Briefly, 5 μL of clarified supematant was added to a PCR reaction mixture that contained forward primers HBV-f 5′-CTGTGCCTTGGGTGGCTTT-3′, Reverse primers HBV-r 5′-[…]-3′ and Fluorescent TaqMan™ Probes HBV-probe 5′-FAM/AGCTCCAAA/ZEN/[…]/3IABkFQ-3′ in Quanta Biosciences PerfeCTa® qPCR Toughmix®, and was subsequently on an Applied Biosystems VIIA7 in a final volume of 20 μL. The PCR mixture was incubated at 45° C. for 5 minutes, then 95° C. for 10 min, followed by 40 cycles of 10 seconds at 95° C. and 20 seconds at 60° C. Viral load was quantitated against known standards by using ViiA™ 7 Software. Viral load in the supematant from wells with treated cells were compared against viral load in supernatant from DMSO control wells (≥3 per plate).

AD38 cells = experiment: Viability of AD38 cells (Promega CellTiter-Glo) at the end of compound treatment; assay type: cell-based; details: 10 μM compound, 6 days, luminescence normalized against DMSO control wells (controls being 100%)
Method: as §1, §2
At the end of compound treatment period cell viability was assessed using a Promega CellTiter-Glo protocol. All supernatant was removed the previously treated 96-well microtiter plate, and 50 μL Tetracycline-free treatment medium (DMEM/F12 (1:1), lx Pen/step (cat#: 30-002-CL, Mediatech, Inc), with 2% FBS, Tet-system approved (cat#: 631106, Clontech), and 1% DMSO was added back to each well. Another 50 μL of CellTiter-Glo reagent solution (Promega, G7573) was then added at room temperature and the contents mixed for 2 minutes on an orbital shaker to induce cell lysis. This was followed by incubation at room temperature for 10 minutes to stabilize the luminescent signal. The luminescence was recorded for 0.2 seconds per well on a Tecan multimode platereader (Infinite M1000 pro). The luminescent signal from each well was normalized against that of untreated (DMSO) control wells. All results were reported percent viability (with controls being 100%).

Row | SMILES | activity at 10 µM [1] | AD38 Viability Normalized Result (CPAM/DMSO %) at 10 μM (AD38 cells)
1 | O=C(NCc1cncnc1)c1ccc2c(c1)NC(=O)c1ccccc1N2Cc1ccccc1 [Compound 1482] | 46% | 98%
2 | O=C(NCCc1ccc(C(F)(F)F)cc1)c1ccc2c(c1)NC(=O)c1ccccc1S2 [Compound 1186] | 1% | 39%
3 | Cc1c(C(=O)NCCc2ccc(S(=O)(=O)N(C)C)cc2)ccc2c1NC(=O)c1ccccc1S2 [Compound 1517] | 2% | 78%
4 | O=C(NC[C@@H](C(=O)O)c1ccccc1)c1ccc2c(c1)NC(=O)c1ccccc1S2 [Compound 1269, (S)-3-(11-oxo-10, 11-dihydrodibenzo [b,f] [1,4]thiazepine-8-carboxamido)-2-phenylpropanoic acid] | 63% | 107%
5 | O=C(Nc1cccc(-c2ccccc2)c1)c1ccc2c(c1)NC(=O)c1ccccc1[S+]2[O-] (stereo not shown) [Compound 1375] | 11% | 89%
6 | O=C(NCCC1CCCCC1)Nc1ccc2c(c1)NC(=O)c1ccccc1S2 [Compound 1225, 1-(2-cyclohexylethyl)-3-(11-oxo-10, 11-dihydrodibenzo [b,f] [1,4]thiazepin-8-yl) urea] | 10% | 87%
7 | CN1c2ccc(C(=O)NCc3cnco3)cc2NC(=O)c2ccccc21 [Compound 1547] | 16% | 90%
8 | CCOc1ccc(CCNC(=O)c2ccc3c(c2)NC(=O)c2ccccc2S3)cc1 [Compound 1214] | 2% | 94%
9 | CCN1c2ccc(C(=O)NCc3cccnc3)cc2NC(=O)c2ccccc21 [Compound 1550] | 1% | 87%
10 | Cc1ccc2c(c1)Sc1ccc(C(=O)NCCC3CCCCC3)cc1NC2=O [Compound 1273] | 6% | 96%
11 | COC(=O)c1cccc(-c2cccc(NC(=O)c3ccc4c(c3)NC(=O)c3cc(F)ccc3S4)c2)c1 [Compound 1422, Methyl 3′-(2-fluoro-11-oxo-10, 11-dihydrodibenzo [b,f] [1,4]thiazepine-8-carboxamido)-[1, 1′-biphenyl]-3-carboxylate] | 64% | 95%
12 | O=C(NCCc1cccnn1)c1ccc2c(c1)NC(=O)c1ccccc1S2 [Compound 1569] | 1% | 114%
13 | COc1cccc(CCNC(=O)c2ccc3c(c2)NC(=O)c2ccccc2S3)c1 [Compound 1124] | 80% | 99%
14 | CC(C)NS(=O)(=O)c1ccc2c(c1)NC(=O)c1ccccc1S2 [Compound 1450] | 73% | 94%
15 | C[C@@H](O)CNC(=O)c1ccc2c(c1)NC(=O)c1ccccc1S2 [Compound 1221] | 19% | 106%
16 | CCCCCCNC(=O)c1ccc2c(c1)NC(=O)c1ccccc1S2 [Compound 1151] | 1% | 50%
17 | O=C(Nc1cccc(-c2ccccc2)c1)c1cc2c(cc1F)Sc1ccccc1C(=O)N2 [Compound 1509] | 15% | 29%
18 | CCN1c2ccc(C(=O)NCc3cncs3)cc2NC(=O)c2ccccc21 [Compound 1534] | 5% | 109%
19 | CCOC(=O)C(NC(=O)c1ccc2c(c1)NC(=O)c1cc(F)ccc1S2)c1ccccn1 (stereo not shown) [Compound 1424] | 65% | 96%
20 | Cc1c(C(=O)NCc2cncnc2)ccc2c1NC(=O)c1ccccc1S2 [Compound 1478] | 2% | 94%
21 | O=C(CCC1CCCCC1)Nc1ccc2c(c1)NC(=O)c1ccccc1S2 [Compound 1207] | 24% | 99%
22 | O=C(Nc1cccnc1)c1ccc2c(c1)NC(=O)c1ccccc1S2 [Compound 1231] | 12% | 93%

Row | SMILES | activity at 10 µM [1] | AD38 Viability Normalized Result (CPAM/DMSO %) at 10 μM (AD38 cells)
23 | O=C(NCCC1CCCCC1)c1ccc2c(c1)NC(=O)c1ccncc1S2 [Compound 1237] | 4% | 66%
24 | O=C(NCCc1cnco1)c1ccc2c(c1)NC(=O)c1ccc(F)cc1S2 [Compound 1402] | 12% | 81%
25 | COc1cccc(CNC(=O)c2ccc3c(c2)NC(=O)c2ccccc2S3)c1 [Compound 1160] | 2% | 105%
26 | Cc1c(C(=O)NCCc2cncnc2)ccc2c1NC(=O)c1ccccc1S2 [Compound 1529] | 12% | 111%
27 | CN(C)c1ccccc1CNC(=O)c1ccc2c(c1)NC(=O)c1ccccc1S2 [Compound 1227] | 10% | 92%
28 | O=C1Nc2cc(S(=O)(=O)N3CCCCC3)ccc2Sc2ccccc21 [Compound 1399] | 105% | 92%
29 | O=C(Nc1ccccn1)c1ccc2c(c1)NC(=O)c1ccccc1S2 [Compound 1230] | 46% | 102%
30 | O=C(NCCCOc1ccccc1)c1ccc2c(c1)NC(=O)c1ccccc1S2 [Compound 1241] | 12% | 86%
31 | C[C@H](O)CNC(=O)c1ccc2c(c1)NC(=O)c1ccccc1S2 [Compound 1222] | 32% | 100%
32 | O=C(NCc1cccnc1)c1ccc2c(c1)NC(=O)c1c(F)cccc1S2 [Compound 1490] | 7% | 79%
33 | COc1ccc2c(c1)Sc1ccc(C(=O)NCCC3CCCCC3)cc1NC2=O [Compound 1271] | 6% | 100%
34 | O=C1Nc2cc(S(=O)(=O)NCCc3ccccc3)ccc2Sc2ccccc21 [Compound 1289, 11-oxo-N-phenethyl-10, 11-dihydrodibenzo [b,f] [1,4] thiazepine-8-sulfonamide] | 40% | 96%
35 | O=C(NCCc1cncs1)c1ccc2c(c1)NC(=O)c1ccccc1[S+]2[O-] (stereo not shown) [Compound 1527] | 19% | 116%
36 | O=C(NCc1ccc(-c2cncnc2)cc1)c1ccc2c(c1)NC(=O)c1cc(F)ccc1S2 [Compound 1314] | 69% | 101%
37 | O=C(NCCc1ccc(-n2cncn2)cc1)c1ccc2c(c1)NC(=O)c1ccccc1S2 [Compound 1249] | 34% | 108%
38 | Cc1nnc(CCNC(=O)c2ccc3c(c2)NC(=O)c2ccccc2S3)s1 [Compound 1567] | 1% | 109%
39 | CCN1c2ccc(C(=O)NCc3cncnc3)cc2NC(=O)c2ccccc21 [Compound 1533] | 2% | 105%
40 | CC(C)c1ncc(CNC(=O)c2ccc3c(c2)NC(=O)c2ccccc2S3)s1 [Compound 1611] | 0% | 130%
41 | O=C(Nc1cccc(F)c1)c1ccc2c(c1)NC(=O)c1cc(F)ccc1S2 [Compound 1317] | 50% | 95%
42 | O=C(NCCC1CCCCC1)c1ccc2c(c1)NC(=O)c1ccc(F)cc1S2 [Compound 1234] | 3% | 79%
43 | O=C(Nc1cccc(-c2ccccc2C(=O)O)c1)c1ccc2c(c1)NC(=O)c1cc(F)ccc1S2 [Compound 1435, 3′-(2-fluoro-11-oxo-10, 11-dihydrodibenzo [b,f] [1,4]thiazepine-8-carboxamido)-[1, 1′-biphenyl]-2-carboxylic acid] | 77% | 99%
44 | CN1c2ccc(C(=O)NCc3cncs3)cc2NC(=O)c2ccccc21 [Compound 1581] | 3% | 97%
